Patent US20110237493A1, “DIPEPTIDE LINKED MEDICINAL AGENTS” (priority 2008, published 2011)
Read-outs that look alike come from different tables or passages of the source. Where a SMILES comes first, the peptide text is derived from it. [ ]: non-standard residue; d: D form. NHexGly = CCCCCCNCC(=O)O; Sar = CNCC(=O)O

How the values were obtained:
[1] = Rate of model dipeptide cleavage in PBS (HPLC / LC-MS); conditions: for half-life at 1 mg/ml: buffer; for Relative peak area (%) HPLC peak a (molecular weight 702) / Relative peak area (%) HPLC peak b (molecular weight 902): PBS, 37° C.
Protocol: The solution was incubated at 37° C. […] The dipeptide cleavage was quenched by lowering the pH with an equal volume of 0.1% TFA. The rate of cleavage was qualitatively monitored by LC-MS and quantitatively studied by HPLC. The retention time and relative peak area for the prodrug and the parent model peptide were quantified using Peak Simple Chromatography software.
The flow rate was 1 ml/min.
The concentrations of the prodrugs and the model parent peptide were determined by their respective peak areas, ‘a’ and ‘b’ for each of the different collection times (Table 1). […] The slope of this plot provides the rate constant ‘k’.

[2] = plasma

SMILES: C[C@@H](O)[C@H](NC(=O)CNC(=O)[C@H](CCCNC(=N)N)NC(=O)[C@H](CO)NC(=O)[C@H](Cc1c[nH]cn1)NC(=O)CN(C)C(=O)C(C)(C)N)C(=O)N[C@@H](Cc1ccccc1)C(N)=O [Compound 24]
- half-life at 1 mg/ml [1]: 0.817 h

SMILES: CCCCCCN(CC(=O)N[C@@H](Cc1c[nH]cn1)C(=O)N[C@@H](CO)C(=O)N[C@@H](CCCNC(=N)N)C(=O)NCC(=O)N[C@H](C(=O)N[C@@H](Cc1ccccc1)C(N)=O)[C@@H](C)O)C(=O)C(C)(C)N [Compound 25]
- half-life at 1 mg/ml [1]: 0.167 h

SMILES: C[C@@H](O)[C@H](NC(=O)CNC(=O)[C@H](CCCNC(=N)N)NC(=O)[C@H](CO)NC(=O)[C@H](Cc1c[nH]cn1)NC(=O)CN(C)C(=O)CN)C(=O)N[C@@H](Cc1ccccc1)C(N)=O [Compound 27] (H-G[Sar]HSRGTF-NH2)
- half-life at 1 mg/ml [1]: 104 h

SMILES: C[C@@H](O)[C@H](NC(=O)CNC(=O)[C@H](CCCNC(=N)N)NC(=O)[C@H](CO)NC(=O)[C@H](Cc1c[nH]cn1)NC(=O)CN(C)C(=O)CO)C(=O)N[C@@H](Cc1ccccc1)C(N)=O [Compound 28]
- half-life at 1 mg/ml [1]: 149 h

SMILES: CCCCCCN(CC(=O)N[C@@H](Cc1c[nH]cn1)C(=O)N[C@@H](CO)C(=O)N[C@@H](CCCNC(=N)N)C(=O)NCC(=O)N[C@H](C(=O)N[C@@H](Cc1ccccc1)C(N)=O)[C@@H](C)O)C(=O)CN [Compound 29] (H-G[NHexGly]HSRGTF-NH2)
- half-life at 1 mg/ml [1]: 70 h

SMILES: C[C@@H](O)[C@H](NC(=O)CNC(=O)[C@H](CCCNC(=N)N)NC(=O)[C@H](CO)NC(=O)[C@H](Cc1c[nH]cn1)NC(=O)CN(C)C(=O)[C@H](N)CCCCN)C(=O)N[C@@H](Cc1ccccc1)C(N)=O [Compound 30]
- half-life at 1 mg/ml [1]: 27 h

SMILES: C[C@@H](O)[C@H](NC(=O)CNC(=O)[C@H](CCCNC(=N)N)NC(=O)[C@H](CO)NC(=O)[C@H](Cc1c[nH]cn1)NC(=O)CN(C)C(=O)[C@@H](N)CCCCN)C(=O)N[C@@H](Cc1ccccc1)C(N)=O [Compound 33]
- t1/2 of cleavage of dipeptide A-B ([1]; in PBS, A-B linked to position 1 (X) of model hexapeptide XSRGTF-NH2): 14 h

SMILES: C[C@@H](O)[C@H](NC(=O)CNC(=O)[C@H](CCCNC(=N)N)NC(=O)[C@H](CO)NC(=O)[C@H](Cc1c[nH]cn1)NC(=O)CN(C)C(=O)[C@@H](N)Cc1ccccc1)C(=O)N[C@@H](Cc1ccccc1)C(N)=O [Compound 34] (H-F[Sar]HSRGTF-NH2)
- half-life at 1 mg/ml [1]: 29 h

SMILES: C[C@@H](O)[C@H](NC(=O)CNC(=O)[C@H](CCCNC(=N)N)NC(=O)[C@H](CO)NC(=O)[C@H](Cc1c[nH]cn1)NC(=O)CN(C)C(=O)[C@@H](N)CO)C(=O)N[C@@H](Cc1ccccc1)C(N)=O [Compound 35] (H-S[Sar]HSRGTF-NH2)
- half-life at 1 mg/ml [1]: 17 h

SMILES: C[C@@H](O)[C@H](NC(=O)CNC(=O)[C@H](CCCNC(=N)N)NC(=O)[C@H](CO)NC(=O)[C@H](Cc1c[nH]cn1)NC(=O)CN(C)C(=O)[C@@H]1CCCN1)C(=O)N[C@@H](Cc1ccccc1)C(N)=O [Compound 36] (H-P[Sar]HSRGTF-NH2)
- half-life at 1 mg/ml [1]: 181 h

SMILES: C[C@@H](O)[C@H](NC(=O)CNC(=O)[C@H](CCCNC(=N)N)NC(=O)[C@H](CO)NC(=O)[C@H](Cc1c[nH]cn1)NC(=O)CN(C)C(=O)[C@@H](N)CCCCN)C(=O)N[C@@H](Cc1ccccc1)C(N)=O [peptide A, Lys-Sar-HSRGTF-NH2]
- Relative peak area (%) HPLC peak a (molecular weight 702) ([1]; 5 h): 26.5%
- Relative peak area (%) HPLC peak b (molecular weight 902) ([1]; 5 h): 73.5%
- Relative peak area (%) HPLC peak a (molecular weight 702) ([1]; 8 h): 28.9%
- Relative peak area (%) HPLC peak b (molecular weight 902) ([1]; 8 h): 71.1%
- Relative peak area (%) HPLC peak a (molecular weight 702) ([1]; 24 h): 28.8%
- Relative peak area (%) HPLC peak b (molecular weight 902) ([1]; 24 h): 71.2%
- Relative peak area (%) HPLC peak a (molecular weight 702) ([1]; 31 h): 77.7%
- Relative peak area (%) HPLC peak b (molecular weight 902) ([1]; 31 h): 22.3%
- Relative peak area (%) HPLC peak a (molecular weight 702) ([1]; 47 h): 90.0%
- Relative peak area (%) HPLC peak b (molecular weight 902) ([1]; 47 h): 10.0%
- half-life at 1 mg/ml [1]: 14 h

SMILES: C[C@H](O)[C@@H](NC(=O)CNC(=O)[C@@H](CCCNC(=N)N)NC(=O)[C@H](NC(=O)[C@@H](Cc1c[nH]cn1)NC(=O)CN(C)C(=O)[C@@H](N)CCCCN)[C@H](C)O)C(=O)N[C@H](Cc1ccccc1)C(N)=O [peptide B, Lys-Sar-dHdTdRGdTdF-NH2] (H-K[Sar][dH][dT][dR]G[dT][dF]-NH2)
- Relative peak area (%) HPLC peak a (molecular weight 702) ([2]; 5 h): 17.0%
- Relative peak area (%) HPLC peak b (molecular weight 902) ([2]; 5 h): 83.0%
- Relative peak area (%) HPLC peak a (molecular weight 702) ([2]; 11 h): 29.2%
- Relative peak area (%) HPLC peak b (molecular weight 902) ([2]; 11 h): 70.8%
- Relative peak area (%) HPLC peak a (molecular weight 702) ([2]; 24 h): 60.2%
- Relative peak area (%) HPLC peak b (molecular weight 902) ([2]; 24 h): 39.8%
- Relative peak area (%) HPLC peak a (molecular weight 702) ([2]; 32 h): 54.0%
- Relative peak area (%) HPLC peak b (molecular weight 902) ([2]; 32 h): 46.0%
- Relative peak area (%) HPLC peak a (molecular weight 702) ([2]; 48 h): 27.6%
- Relative peak area (%) HPLC peak b (molecular weight 902) ([2]; 48 h): 72.4%
